Reference: patent US20110015198A1, “DIARYLMETHYLAMIDE DERIVATIVE HAVING MELANIN-CONCENTRATING HORMONE RECEPTOR ANTAGONISM” (BANYU PHARMACEUTICAL CO., INC., priority 2008, published 2011)

Target: T1, human MCH-1R (Homo sapiens, UniProt Q99705)
T1 construct: expressed in transfected cells; host or cells: CHO-K1 (American Type Culture Collection), plasmid vector pEF/myc/cyto
Test: MCH binding inhibition test
Conditions: membrane samples from MCH-1R expressing CHO-K1 cells, 50 pM [125I]MCH, 25° C., one hour; read-out: IC50 (nM); 50% inhibition concentration (IC50 value) for specific [125I]MCH binding
Source text: Pharmacological test example: MCH binding inhibition test A cDNA sequence encoding human MCH-1R [FEBS Letters, Vol. 398, 253 (1996); Biochimica et Biophisica Acta, Vol. 1401, 216 (1998)] was cloned to a plasmid vector pEF/myc/cyto (manufactured by Invitrogen). The obtained expression vector was transfected to a host cell CHO-K1 (American Type Culture Collection) using Lipofectamine Plus reagent (manufactured by Life Technology) to provide MCH-1R expression cells.
Membrane samples prepared from the MCH-1R expression cells were incubated with a test compound and 50 pM [^125I]MCH (manufactured by NEN) in an assay buffer (50 mM Tris buffer containing 10 mM magnesium chloride, 2 mM ethylenediamine tetraacetate, 0.01% bacitracin, and 0.2% bovine serum albumin; pH 7.4) at 25° C. for one hour, followed by filtration through a glass filter GF/C (manufactured by Wattman). The glass filter was washed with 50 mM Tris buffer (pH 7.4) containing 10 mM magnesium chloride, 2 mM ethylenediamine tetraacetate, and 0.04% Tween-20, and then the radioactivity on the glass filter was determined Non-specific binding was measured in the presence of 1 μM human MCH, and, with respect to each test compound, 50% inhibition concentration (IC50 value) for specific [^125I]MCH binding was determined.

T1 sequence (Q99705 whole entry): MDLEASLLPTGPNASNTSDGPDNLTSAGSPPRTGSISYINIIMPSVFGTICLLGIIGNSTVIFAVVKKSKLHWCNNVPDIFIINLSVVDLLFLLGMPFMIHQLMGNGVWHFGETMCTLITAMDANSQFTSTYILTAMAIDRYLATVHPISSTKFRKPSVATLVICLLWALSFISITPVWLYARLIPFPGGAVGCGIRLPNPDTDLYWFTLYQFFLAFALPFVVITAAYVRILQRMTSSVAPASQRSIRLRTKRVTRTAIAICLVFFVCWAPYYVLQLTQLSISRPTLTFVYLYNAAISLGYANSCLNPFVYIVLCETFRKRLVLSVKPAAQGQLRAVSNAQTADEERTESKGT

| Compound | IC50 |
| --- | --- |
| O=C1CCCN1C(c1ccc(CN2CCC3(CC2)OCc2ccncc23)cc1)c1ccc(F)c(F)c1 (centres unmarked) [Example 2-1, 1-{(3,4-difluorophenyl)[4-(1H,1′H-spiro[furo[3,4-c]pyridine-3,4′-piperidin]-1′-ylmethyl)phenyl]methyl}pyrrolidin-2-one] | 0.26 nM |
| Cn1cc2c(cc1=O)C1(CCN(Cc3ccc(C(c4ccc(F)c(F)c4)N4CCCS4(=O)=O)cc3)CC1)OC2 (centres unmarked) [Example 1-20, 1′-{4-[(3,4-difluorophenyl)(1,1-dioxideisothiazolidin-2-yl)methyl]benzyl}-5-methyl-3,5-dihydro-6H-spiro[furo[3,4-c]pyridine-1,4′-piperidin]-6-one] | 2.9 nM |
| O=C1C(F)CCN1C(c1ccc(CN2CCC3(CC2)OCc2ccncc23)cc1)c1ccc(F)c(F)c1 (single isomer, unassigned) [Example 2-5, (3R)— or (3S)—[(R)— or (S)-1-{(3,4-difluorophenyl)[4-(1H,1′H-spiro[furo[3,4-c]pyridine-3,4′-piperidin]-1′-ylmethyl)phenyl]methyl}]-3-fluoropyrrolidin-2-one] | 0.18 nM |
| CC(NC(=O)C(F)F)(c1ccc(F)c(F)c1)c1ccc(CN2CCC(c3ccc(F)nc3)CC2)cn1 (single isomer, unassigned) [Example 1-58, (R)— or (S)—N-[1-(3,4-difluorophenyl)-1-(5-{[4-(6-fluoropyridin-3-yl)piperidin-1-yl]methyl}pyridin-2-yl)ethyl]-2,2-difluoroacetamide] | 1.7 nM |
| CN(C(=O)C(C)(C)O)C(c1ccc(F)c(F)c1)c1ccc(CN2CCC(c3ccc(F)nc3)CC2)cn1 (single isomer, unassigned) [Example 1-37, (R)— or (S)—N-[(3,4-difluorophenyl)(5-{[4-(6-fluoropyridin-3-yl)piperidin-1-yl]methyl}pyridin-2-yl)methyl]-2-hydroxy-N,2-dimethylpropanamide] | 17 nM |
